Tests used:
bulrush [1] = test: Test Example 1: herbicidal efficacy on rice paddy weeds pre-emergence; format: in vivo, Scirpus juncoides; conditions: dosage 1000 g/ha, 21 days
false pimpernel [2] = test: as above; format: in vivo, Lindernia pyxidaria; conditions: dosage 1000 g/ha, 21 days
barnyard glass = test: Test Example 2: herbicidal efficacy on rice paddy weeds post-emergence; format: in vivo, Echinochloa crus-galli; conditions: dosage 1000 g/ha; post-emergence, one leaf stage; 21 days after treatment
Summary of the method: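 Efficacy on paddy weeds was scored on a 0 to 4 growth-inhibition scale: 4 for 90%-100%, 3 for 70%-89%, 2 for 40%-69%, 1 for 1%-39% and 0 for 0%. Barnyard glass was grown in clay loam in 75 cm^2 pots under 5 cm of water in a hot house. It was compared with untreated pots 21 days after treatment.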

bulrush [3] = test: as above; format: in vivo, Scirpus juncoides; conditions: dosage 1000 g/ha; post-emergence, one leaf stage; 21 days after treatment
false pimpernel [4] = test: as above; format: in vivo, Lindernia pyxidaria; conditions: dosage 1000 g/ha; post-emergence, one leaf stage; 21 days after treatment
[5] = test system: paddy rice plant (cultivar: Nihonbare); test: Test Example 3: phytotoxicity test for transplanted paddy rice plant; format: in vivo; conditions: dosage 1000 g/ha; transplanted rice, treated 5 days after transplantation; 21 days after treatment
Summary of the method: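 Clay loam soil was placed in a 75 cm^2 plastic pot and flooded to a water depth of 5 cm. Two Nihonbare paddy rice plants at the two-leaf stage were transplanted 1 cm deep and grown in a hot house. After treatment, pots stayed in the hot house for 21 days, and phytotoxicity was then graded against an untreated control.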

bulrush [6] = test: Test Example 4: low dosage test for rice paddy weeds; format: in vivo, Scirpus juncoides; conditions: 300 g/ha as an active ingredient; plants treated at the one leaf stage; 21 days after treatment; vs untreated control
Summary of the method: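 Compound applied as a formulation at 300 g/ha to one-leaf bulrush grown in flooded clay loam (5 cm water) in a hot house. After 21 days, growth inhibition versus untreated plants rated on a 0–4 scale, with 4 meaning 90–100%.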

[7] = test system: transplanted paddy rice plant and Bulrush; test: Test Example 5: selectivity between transplanted paddy rice plant and weeds; format: in vivo; conditions: (highest dosage with no phytotoxicity to paddy rice)/(lowest dosage with effective level 4 on Bulrush); rice 3000-100 g/ha, Bulrush 300-10 g/ha; 21 days
Summary of the method: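 Scoring ran 21 days after treatment in a hothouse on a 0–4 scale (4 = 90–100%, 3 = 70–89%, 2 = 40–69%, 1 = 1–39%, 0 = none) relative to untreated plants. Post-emergence bulrush received 10, 30, 100 and 300 g/ha active ingredient. Transplanted rice received 100, 300, 1000 and 3000 g/ha to assess crop injury.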

Compound: CC(C)COC(=O)N(c1ccccc1CN1CC2(CCCCC2)OC1=O)S(=O)(=O)C(F)(F)F [1-46]
- Bulrush pre (herbicidal efficacy grade) (bulrush [1]): 4 (90%-100% of herbicidal efficacy or phytotoxicity)
- False pimpernel pre (herbicidal efficacy grade) (false pimpernel [2]): 4 (90%-100% of herbicidal efficacy or phytotoxicity)
- Burnyard grass post (herbicidal efficacy grade) (barnyard glass): 4 (90%-100% of herbicidal efficacy or phytotoxicity)
- Bulrush post (herbicidal efficacy grade) (bulrush [3]): 4 (90%-100% of herbicidal efficacy or phytotoxicity)
- False pimpernel post (herbicidal efficacy grade) (false pimpernel [4]): 4 (90%-100% of herbicidal efficacy or phytotoxicity)
- Phytotoxicity to paddy rice [5]: 1 (1%-39% of herbicidal efficacy or phytotoxicity)
- Herbicide effect to Bulrush (bulrush [6]): 4 (90%-100% of herbicidal efficacy or phytotoxicity)
- Selective Index [7]: 10

Compound: CC(C)COC(=O)N(c1ccccc1CN1C(=O)OC2CCCCC21)S(=O)(=O)C(F)(F)F (stereo not drawn) [1-48]
- Bulrush pre (herbicidal efficacy grade) (bulrush [1]): 4 (90%-100% of herbicidal efficacy or phytotoxicity)
- False pimpernel pre (herbicidal efficacy grade) (false pimpernel [2]): 4 (90%-100% of herbicidal efficacy or phytotoxicity)
- Burnyard grass post (herbicidal efficacy grade) (barnyard glass): 4 (90%-100% of herbicidal efficacy or phytotoxicity)
- Bulrush post (herbicidal efficacy grade) (bulrush [3]): 4 (90%-100% of herbicidal efficacy or phytotoxicity)
- False pimpernel post (herbicidal efficacy grade) (false pimpernel [4]): 4 (90%-100% of herbicidal efficacy or phytotoxicity)
- Phytotoxicity to paddy rice [5]: 1 (1%-39% of herbicidal efficacy or phytotoxicity)
- Herbicide effect to Bulrush (bulrush [6]): 3 (70%-89% of herbicidal efficacy or phytotoxicity)
- Selective Index [7]: 10

Compound: CC1(C)CN(Cc2ccccc2NS(=O)(=O)C(F)(F)F)C(=S)O1 [1-49]
- Bulrush pre (herbicidal efficacy grade) (bulrush [1]): 4 (90%-100% of herbicidal efficacy or phytotoxicity)
- False pimpernel pre (herbicidal efficacy grade) (false pimpernel [2]): 4 (90%-100% of herbicidal efficacy or phytotoxicity)
- Burnyard grass post (herbicidal efficacy grade) (barnyard glass): 4 (90%-100% of herbicidal efficacy or phytotoxicity)
- Bulrush post (herbicidal efficacy grade) (bulrush [3]): 4 (90%-100% of herbicidal efficacy or phytotoxicity)
- False pimpernel post (herbicidal efficacy grade) (false pimpernel [4]): 4 (90%-100% of herbicidal efficacy or phytotoxicity)
- Phytotoxicity to paddy rice [5]: 2 (40%-69% of herbicidal efficacy or phytotoxicity)
- Herbicide effect to Bulrush (bulrush [6]): 4 (90%-100% of herbicidal efficacy or phytotoxicity)
- Selective Index [7]: 10

Compound: CC(C)COC(=O)N(c1ccccc1CN1CC(C)(C)OC1=S)S(=O)(=O)C(F)(F)F [1-50]
- Bulrush pre (herbicidal efficacy grade) (bulrush [1]): 4 (90%-100% of herbicidal efficacy or phytotoxicity)
- False pimpernel pre (herbicidal efficacy grade) (false pimpernel [2]): 4 (90%-100% of herbicidal efficacy or phytotoxicity)
- Burnyard grass post (herbicidal efficacy grade) (barnyard glass): 4 (90%-100% of herbicidal efficacy or phytotoxicity)
- Bulrush post (herbicidal efficacy grade) (bulrush [3]): 4 (90%-100% of herbicidal efficacy or phytotoxicity)
- False pimpernel post (herbicidal efficacy grade) (false pimpernel [4]): 4 (90%-100% of herbicidal efficacy or phytotoxicity)
- Phytotoxicity to paddy rice [5]: 2 (40%-69% of herbicidal efficacy or phytotoxicity)
- Herbicide effect to Bulrush (bulrush [6]): 4 (90%-100% of herbicidal efficacy or phytotoxicity)
- Selective Index [7]: 10

Compound: CC[C@@H]1CN(Cc2ccccc2NS(=O)(=O)C(F)(F)F)C(=O)O1 [1-57]
- Bulrush pre (herbicidal efficacy grade) (bulrush [1]): 4 (90%-100% of herbicidal efficacy or phytotoxicity)
- False pimpernel pre (herbicidal efficacy grade) (false pimpernel [2]): 4 (90%-100% of herbicidal efficacy or phytotoxicity)
- Burnyard grass post (herbicidal efficacy grade) (barnyard glass): 4 (90%-100% of herbicidal efficacy or phytotoxicity)
- Bulrush post (herbicidal efficacy grade) (bulrush [3]): 4 (90%-100% of herbicidal efficacy or phytotoxicity)
- False pimpernel post (herbicidal efficacy grade) (false pimpernel [4]): 4 (90%-100% of herbicidal efficacy or phytotoxicity)
- Phytotoxicity to paddy rice [5]: 1 (1%-39% of herbicidal efficacy or phytotoxicity)
- Herbicide effect to Bulrush (bulrush [6]): 4 (90%-100% of herbicidal efficacy or phytotoxicity)
- Selective Index [7]: 10

Compound: CC[C@@H]1CN(Cc2ccccc2N(C(=O)OCC(C)C)S(=O)(=O)C(F)(F)F)C(=O)O1 [1-58]
- Bulrush pre (herbicidal efficacy grade) (bulrush [1]): 4 (90%-100% of herbicidal efficacy or phytotoxicity)
- False pimpernel pre (herbicidal efficacy grade) (false pimpernel [2]): 4 (90%-100% of herbicidal efficacy or phytotoxicity)
- Burnyard grass post (herbicidal efficacy grade) (barnyard glass): 4 (90%-100% of herbicidal efficacy or phytotoxicity)
- Bulrush post (herbicidal efficacy grade) (bulrush [3]): 4 (90%-100% of herbicidal efficacy or phytotoxicity)
- False pimpernel post (herbicidal efficacy grade) (false pimpernel [4]): 4 (90%-100% of herbicidal efficacy or phytotoxicity)
- Phytotoxicity to paddy rice [5]: 1 (1%-39% of herbicidal efficacy or phytotoxicity)
- Herbicide effect to Bulrush (bulrush [6]): 4 (90%-100% of herbicidal efficacy or phytotoxicity)
- Selective Index [7]: ≧30

Compound: CCC1(CC)CN(Cc2ccccc2NS(=O)(=O)C(F)(F)F)C(=O)O1 [1-61]
- Bulrush pre (herbicidal efficacy grade) (bulrush [1]): 4 (90%-100% of herbicidal efficacy or phytotoxicity)
- False pimpernel pre (herbicidal efficacy grade) (false pimpernel [2]): 4 (90%-100% of herbicidal efficacy or phytotoxicity)
- Burnyard grass post (herbicidal efficacy grade) (barnyard glass): 4 (90%-100% of herbicidal efficacy or phytotoxicity)
- Bulrush post (herbicidal efficacy grade) (bulrush [3]): 4 (90%-100% of herbicidal efficacy or phytotoxicity)
- False pimpernel post (herbicidal efficacy grade) (false pimpernel [4]): 4 (90%-100% of herbicidal efficacy or phytotoxicity)
- Phytotoxicity to paddy rice [5]: 1 (1%-39% of herbicidal efficacy or phytotoxicity)
- Herbicide effect to Bulrush (bulrush [6]): 4 (90%-100% of herbicidal efficacy or phytotoxicity)
- Selective Index [7]: 3

Compound: CCC1(CC)CN(Cc2ccccc2N(C(=O)OCC(C)C)S(=O)(=O)C(F)(F)F)C(=O)O1 [1-62]
- Bulrush pre (herbicidal efficacy grade) (bulrush [1]): 4 (90%-100% of herbicidal efficacy or phytotoxicity)
- False pimpernel pre (herbicidal efficacy grade) (false pimpernel [2]): 4 (90%-100% of herbicidal efficacy or phytotoxicity)
- Burnyard grass post (herbicidal efficacy grade) (barnyard glass): 4 (90%-100% of herbicidal efficacy or phytotoxicity)
- Bulrush post (herbicidal efficacy grade) (bulrush [3]): 4 (90%-100% of herbicidal efficacy or phytotoxicity)
- False pimpernel post (herbicidal efficacy grade) (false pimpernel [4]): 4 (90%-100% of herbicidal efficacy or phytotoxicity)
- Phytotoxicity to paddy rice [5]: 1 (1%-39% of herbicidal efficacy or phytotoxicity)
- Herbicide effect to Bulrush (bulrush [6]): 4 (90%-100% of herbicidal efficacy or phytotoxicity)
- Selective Index [7]: 10

Compound: CCCCOC(=O)N(c1ccccc1CN1CC(C)(C)OC1=O)S(=O)(=O)C(F)(F)F [1-63]
- Bulrush pre (herbicidal efficacy grade) (bulrush [1]): 4 (90%-100% of herbicidal efficacy or phytotoxicity)
- False pimpernel pre (herbicidal efficacy grade) (false pimpernel [2]): 4 (90%-100% of herbicidal efficacy or phytotoxicity)
- Burnyard grass post (herbicidal efficacy grade) (barnyard glass): 4 (90%-100% of herbicidal efficacy or phytotoxicity)
- Bulrush post (herbicidal efficacy grade) (bulrush [3]): 4 (90%-100% of herbicidal efficacy or phytotoxicity)
- False pimpernel post (herbicidal efficacy grade) (false pimpernel [4]): 4 (90%-100% of herbicidal efficacy or phytotoxicity)
- Phytotoxicity to paddy rice [5]: 2 (40%-69% of herbicidal efficacy or phytotoxicity)
- Herbicide effect to Bulrush (bulrush [6]): 4 (90%-100% of herbicidal efficacy or phytotoxicity)
- Selective Index [7]: ≧30

Compound: COC(=O)N(c1ccccc1CN1CC(C)(C)OC1=O)S(=O)(=O)C(F)(F)F [1-64]
- Bulrush pre (herbicidal efficacy grade) (bulrush [1]): 4 (90%-100% of herbicidal efficacy or phytotoxicity)
- False pimpernel pre (herbicidal efficacy grade) (false pimpernel [2]): 4 (90%-100% of herbicidal efficacy or phytotoxicity)
- Burnyard grass post (herbicidal efficacy grade) (barnyard glass): 4 (90%-100% of herbicidal efficacy or phytotoxicity)
- Bulrush post (herbicidal efficacy grade) (bulrush [3]): 4 (90%-100% of herbicidal efficacy or phytotoxicity)
- False pimpernel post (herbicidal efficacy grade) (false pimpernel [4]): 4 (90%-100% of herbicidal efficacy or phytotoxicity)
- Phytotoxicity to paddy rice [5]: 2 (40%-69% of herbicidal efficacy or phytotoxicity)
- Herbicide effect to Bulrush (bulrush [6]): 4 (90%-100% of herbicidal efficacy or phytotoxicity)
- Selective Index [7]: ≧30

Compound: CC1(C)CN(Cc2ccccc2N(C(=O)OCC(Cl)(Cl)Cl)S(=O)(=O)C(F)(F)F)C(=O)O1 [1-65]
- Bulrush pre (herbicidal efficacy grade) (bulrush [1]): 4 (90%-100% of herbicidal efficacy or phytotoxicity)
- False pimpernel pre (herbicidal efficacy grade) (false pimpernel [2]): 4 (90%-100% of herbicidal efficacy or phytotoxicity)
- Burnyard grass post (herbicidal efficacy grade) (barnyard glass): 4 (90%-100% of herbicidal efficacy or phytotoxicity)
- Bulrush post (herbicidal efficacy grade) (bulrush [3]): 4 (90%-100% of herbicidal efficacy or phytotoxicity)
- False pimpernel post (herbicidal efficacy grade) (false pimpernel [4]): 4 (90%-100% of herbicidal efficacy or phytotoxicity)
- Phytotoxicity to paddy rice [5]: 1 (1%-39% of herbicidal efficacy or phytotoxicity)
- Herbicide effect to Bulrush (bulrush [6]): 4 (90%-100% of herbicidal efficacy or phytotoxicity)
- Selective Index [7]: 10

Compound: CC(C)(C)COC(=O)N(c1ccccc1CN1CC(C)(C)OC1=O)S(=O)(=O)C(F)(F)F [1-66]
- Bulrush pre (herbicidal efficacy grade) (bulrush [1]): 4 (90%-100% of herbicidal efficacy or phytotoxicity)
- False pimpernel pre (herbicidal efficacy grade) (false pimpernel [2]): 4 (90%-100% of herbicidal efficacy or phytotoxicity)
- Burnyard grass post (herbicidal efficacy grade) (barnyard glass): 4 (90%-100% of herbicidal efficacy or phytotoxicity)
- Bulrush post (herbicidal efficacy grade) (bulrush [3]): 4 (90%-100% of herbicidal efficacy or phytotoxicity)
- False pimpernel post (herbicidal efficacy grade) (false pimpernel [4]): 4 (90%-100% of herbicidal efficacy or phytotoxicity)
- Phytotoxicity to paddy rice [5]: 1 (1%-39% of herbicidal efficacy or phytotoxicity)
- Herbicide effect to Bulrush (bulrush [6]): 4 (90%-100% of herbicidal efficacy or phytotoxicity)
- Selective Index [7]: ≧30
